Source: patent US10834926B2, “Insecticide properties of an extract of Sextonia rubra, and the constituents thereof” (Centre National de la Recherche Scientifique, priority 2014, dated 2020)

System: larvae of Aedes aegypti mosquitoes of the PAEA laboratory strain
Test: Larvicidal in-cup trial on larvae, protocol adapted from WHO protocols
Format: in vivo
Conditions: for LD50 (SE) At 24 h / LD90 (SE) At 24 h / LD50 (SE) At 48 h / LD90 (SE) At 48 h: larval mortality, stage 3-4 larvae, PAEA strain; for LD50 (SE) At 24 h / LD90 (SE) At 24 h: 24 h after exposure; for LD50 (SE) At 48 h / LD90 (SE) At 48 h: 48 h after exposure; for minimum concentration corresponding to an effective amount (100% mortality): 100% mortality of larvae at 24 h
Excerpt: For the purposes of the present invention, the expression “agent that is insecticidal/larvicidal with respect to a mosquito strain” is intended to mean a compound which results in the death of the mosquito larvae placed in the presence of this compound, for example in the context of an in-cup trial carried out according to the protocol recommended by the WHO (Guidelines for Laboratory and Field Testing of Mosquito Larvicides, WHO/CDS/WHOPES/GCDPP/2005.13, 2005), and for which, according to the WHO criteria for validating the tests, the mortality in the control batches is less than 20%.
The biological trials were carried out on larvae of Aedes aegypti mosquitoes of the PAEA laboratory strain sensitive to all insecticides. The protocol described hereinafter was adapted according to the WHO protocols.
This strain originating from French Polynesia has been maintained for about ten years at the insectarium of the Institut Pasteur of Guyana, in Cayenne. The mosquitoes were bred under natural conditions: temperature of 28° C.±2° C., humidity of 80%±20%, and daytime duration 12:12 h±20 min during the year. The Aedes aegypti eggs were kept dry on strips of blotting paper at the insectarium temperature. Hatching was carried out by placing these strips in water under a vacuum bell jar for at least 20 min. The larvae thus obtained were fed with yeast tablets. The larvae at growth stage 3-4 were then used for the extract and constituent activity tests. 100 larvae were transferred into plastic cups containing 99 ml of distilled water. Four cups per concentration (4×25 larvae) and at least 5 concentrations of each extract or constituent diluted in ethanol (crude extract of Sextonia rubra: 1, 2, 3, 4, 5, 7, 10, 25, 35, 50, 75, 100 μg/ml, rubrenolide: 0.1, 0.3, 0.5, 0.7, 1, 1.5, 2 μg/ml, rubrynolide: 0.1, 0.3, 0.5, 0.7, 1, 1.5, 4, 6, 8 μg/ml) were used to measure mortalities ranging from 0 to 100%. Each concentration of extract or of constituent (1 ml) was added to the cup. Controls were also carried out by adding 1 ml of ethanol to the cup. The mortality was evaluated at 24 h and 48 h after exposure of the larvae to the test product (crude extract, isolated constituent, ethanol).

Row | Compound | LD50 (SE) At 24 h | LD90 (SE) At 24 h | LD50 (SE) At 48 h | LD90 (SE) At 48 h | minimum concentration corresponding to an effective amount (100% mortality) [µg/mL] | LD50 (SE) At 24 h (listed as rubrenolide) [µg/mL] | LD50 (SE) At 24 h (listed as rubrynolide) [µg/mL] | LD50 (SE) At 24 h (listed as spinosad) [µg/mL]
1 | COP(=O)(OC)OC=C(Cl)Cl [Dichlorvos, dichlorvos, reference compound] | 0.039 (0.012) μg/ml | 0.064 (0.026) μg/ml | 0.029 (0.012) μg/ml | 0.049 (0.020) μg/ml |  |  |  | 
2 | C=CCCCCCCCC[C@@H]1C[C@H](C[C@@H](O)CO)C(=O)O1 [Rubrenolide, rubrenolide] | 0.605 (0.023) μg/ml | 2.110 (0.041) μg/ml | 0.300 (0.024) μg/ml | 0.788 (0.027) μg/ml | 2 | 0.6 |  | 
3 | C#CCCCCCCCC[C@@H]1C[C@H](C[C@@H](O)CO)C(=O)O1 [Rubrynolide, rubrynolide] | 3.840 (0.018) μg/ml | 8.909 (0.031) μg/ml | 2.105 (0.023) μg/ml | 8.200 (0.043) μg/ml | 17 |  | 3.8 | 
4 | spinosad [reference compound] | 0.387 (0.025) μg/ml | 1.118 (0.065) μg/ml | 0.193 (0.020) μg/ml | 0.444 (0.028) μg/ml |  |  |  | 0.4
